Source: patent publication US11690814B2, “Suplatast tosilate for use in the treatment of cough associated with interstitial lung disease” (Conrig Pharma ApS, priority 2016, dated 2023)
“Also recorded” adds a separate entry of the source. Like-named read-outs stand apart in the source and are kept apart here.

How the values were obtained:
[1] = tested on: guinea pigs (enalapril plus citric acid induced cough); assay: Cough induced by enalapril plus citric acid in guinea pigs; format: in vivo, guinea pig; details: 30 mg/kg i.p. 30 min before 10% citric acid spray; enalapril 1.3 mg/kg s.c.; whole 8-min observation; mean±S.E.M.; n=6; vehicle 11.2±2.6
Experimental: The method is described in detail by Zhou et al: Pharmacology. 2015; 95(1-2): 36-41. In brief: Male guinea pigs 300-350 g bodyweight (Harlan MD, distributed by INNOVO Ltd., Hungary) were used. The animals were housed in open cages in a temperature-controlled and ventilated environment (21-23° C.) with a 12-hour light-dark cycle. Water and standard ascorbic acid containing guinea pig chow were provided ad libitum. The protocol has been approved by the Hungarian Food Chain Safety and Animal Health Directorate (PEI/001/3083-6/2014) and was carried out in accordance with European Directive 86/609/EEC.
The enalapril maleate was dissolved in sterile saline (Salsol infusion, Teva) at 1.3 mg/mL concentration and was applied subcutaneously at 1.3 mg/kg dose (1 mL/kg b.d.w. volume from the 1.3 mg/mL solution) 30 min before vehicle, suplatast tosilate or administration. […]
The guinea pigs were exposed to 10% citric acid spray 30 min after the test item administration. […] The number of coughs during the 3 min inhalation period and the subsequent 5 min was counted. […] The sound of the cough was monitored by a microphone connected to a loudspeaker placed into the cough chamber. A trained technician monitored the exposed animals and counted the cough numbers.
The average cough numbers in each group was expressed as mean±S.E.M. The percentage antitussive effect was also calculated.

[2] = tested on: guinea-pigs (airway cough hypersensitivity, allergic eosinophilic inflammation); details: cited from earlier work
[3] = tested on: patients with non-atopic asthma or chronic bronchitis; details: cited from earlier work
[4] = tested on: refractory chronic dry cough following lung cancer surgery; details: cited from earlier work
[5] = tested on: naive guinea pigs (capsaicin inhalation-induced cough); assay: 30 uM capsaicin cough challenge on naive animals; format: in vivo, guinea pig; details: for inhibition at 30 mg/kg: Cavia porcellus, ip; for mean cough, 10 min exposure: 30 mg/kg i.p. 30 min before 30 uM capsaicin, vehicle 9.3; for mean cough, 10 min exposure / mean cough, 5 min observation / mean cough, 10 + 5 min: n=16; for mean cough, 5 min observation: 5 min post-exposure period, vehicle 2.4; for mean cough, 10 + 5 min: vehicle 11.7; for antitussive effect (conclusion in words): capsaicin challenge
Experimental: (§1) The study was conducted as described in example 2, with the following exceptions. The bleomycin-induced cough modes is described J. A. Fernandez-Blanco et al: Clinical Science (2015) 129, 1001-1010).
(§2) The objective of the present study was to evaluate the potential anti-tussive effect of suplatast tosilate on capsaicin inhalation-induced cough on naïve and bleomycin-treated guinea pigs.
(§3) Male guinea pigs 300-350 g bodyweight (Harlan MD, distributed by INNOVO Ltd., Hungary) were used. The animals were housed in individually ventilated cabinets in a temperature-controlled and ventilated environment (21-23° C.) with a 12-hour light-dark cycle. Water and standard ascorbic acid containing guinea pig chow were provided ad libitum. The protocol has been approved by the Hungarian Food Chain Safety and Animal Health Directorate (PEI/001/3083-6/2014) and was carried out in accordance with European Directive 86/609/EEC.
(§4) Suplatast tosilate (racemate) and reference compound codeine were dissolved in saline ([…]) at 15 mg/mL concentration. Suplatast tosilate was administered intraperitoneally at 30 mg/kg dose (2 ml/kg b.d.w. volume from the […] solution) 30 min before capsaicin challenge. Codeine is a known cough suppressant.
(§5) Three experimental groups were involved in this study: Vehicle, suplatast tosilate and codeine treated groups. Each group contained n=16 guinea pigs. Altogether, 48 guinea pigs were used for this study.
(§6) On day 0 the naïve animals were treated i.p. either with codeine or suplatast tosilate. 30 min later the cough challenge was applied. 14 days later the animals were anaesthetized by ketamin/xilazine/acepromazine 10/2/0.1 mg/kg at 1 mL/kg i.m. The trachea was prepared and 8 U/kg bodyweight (1 mL/kg volume in sterile saline) bleomycin was injected slowly into the trachea. The wound was closed by sutures. 14 days after bleomycin injection the animals were treated with the test molecules and exposed to capsaicin spray again.
(§7) The capsaicin cough-challenge protocol was applied both on day 0 naïve animals and on day 28 on bleomycin treated animals. The guinea pigs were exposed to 30 μM capsaicin spray 30 min after the test item administration. The 30 μM capsaicin spray was generated by a compressed air nebulizer (DeVilbiss Pulmoaid) connected to a transparent chamber (6.7 l volume). Compressed air with a flow of 0.16 l/s and pressure of 0.5 bar produced the spray. The capsaicin vapour penetrated into the chamber through a short tube driven by constant air flow. The animals were put into a transparent chamber individually and exposed to the capsaicin (30 μM capsaicin was diluted by water from 10^-2 M alcoholic capsaicin stock solution) aerosol for 10 minutes. The number of coughs during the 10 min inhalation period and the subsequent 5 min was counted. The coughing of the animals was defined as a strong contraction of abdomen which was followed by forced expiration through the opened mouth of the animals. Two trained technicians monitored in parallel the exposed animals and counted the cough numbers independently from each-others.
(§8) The cough numbers in each group were expressed as median and inter quartile range on the figures and mean±SD on tables. The percentage antitussive effect was also calculated.

[6] = tested on: patients with Cough Variant Asthma; details: cited from earlier work
[7] = tested on: bleomycin-treated guinea pigs (capsaicin inhalation-induced cough); assay: 30 uM capsaicin cough challenge on bleomycin-treated animals (pre-clinical model of pulmonary fibrosis); format: in vivo, guinea pig; details: for inhibition at 30 mg/kg: Cavia porcellus, ip; for mean cough, 10 min exposure: bleomycin-treated (14 days after 8 U/kg intratracheal), 30 mg/kg i.p. 30 min before 30 uM capsaicin, vehicle 52.9; for mean cough, 10 min exposure / mean cough, 5 min observation / mean cough, 10 + 5 min: n=14-16; for antitussive effect (conclusion in words): bleomycin-treated animals, capsaicin challenge; for mean cough, 5 min observation: 5 min post-exposure period, vehicle 22.4; for mean cough, 10 + 5 min: vehicle 75.3
Experimental: as §1, §2, §3, §4, §5, §6, §7, §8

[8] = tested on: guinea pigs (enalapril plus citric acid induced cough); details: Zhou et al 2015; cited from earlier work
Atopic cough = details: after four weeks of treatment; cited from earlier work
[9] = Solubility in dosing vehicle; format: physicochemical; details: 10% PEG400/saline mixture; 30 mg/mL dosing solution
Experimental: The vehicle for suplatast tosilate was 10% PEG400/saline mixture. Suplatast tosilate was well soluble in this mixture. ST was administered intraperitoneally at 30 mg/kg dose (1 ml/kg b.d.w. volume from the 30 mg/mL solution/suspension) 30 min before citric acid challenge. 6 guinea pigs were included in the vehicle group and in the ST group.
The vehicle for suplatast tosilate (ST) is 10% PEG400/saline mixture. ST is well soluble in this mixture. ST is administered intraperitoneally at 30 mg/kg dose (1 ml/kg b.d.w. volume from the 30 mg/mL solution/suspension) 30 min before citric acid challenge. 6 guinea pigs were included in the vehicle and in the ST groups.

[10] = tested on: Idiopathic Pulmonary Fibrosis (IPF); details: cited from earlier work
[11] = tested on: patients receiving the drug; details: cited from earlier work
[12] = naive animals, 30 mg/kg i.p., whole 15-min observation
[13] = bleomycin-treated, 30 mg/kg i.p.
[14] = bleomycin-treated, 30 mg/kg i.p., whole 15-min observation
[15] = 5 min, read-out: Percentage inhibition (antitussive effect), 5 min observation
[16] = 10 min, read-out: Percentage inhibition (antitussive effect), 10 min exposure
[17] = read-out: Percentage inhibition (antitussive effect), 10 + 5 min

CCOCC(O)COc1ccc(NC(=O)CC[S+](C)C)cc1.Cc1ccc(S(=O)(=O)[O-])cc1 (racemic) [Suplatast tosilate, (±)-3-{[4-(3-ethoxy-2-hydroxypropoxy)phenyl]amino}-3-oxopropyl)(dimethyl)sulfonium; 4-methylbenzenesulfonate]
cough number [1]: 7.2±2.8
acute effect on capsaicin induced cough ([2]; acute administration, airway allergy guinea-pig model): does not acutely reduce capsaicin induced cough
effect on airway cough hypersensitivity ([2]; sub-chronic administration, allergic eosinophilic inflammation, listed as ST): reduce airway cough hypersensitivity; also recorded: inhibiting airway cough hypersensitivity
effect on cough reflex sensitivity [3]: does not change the cough reflex sensitivity
effect on refractory chronic dry cough [4]: benefit refractory chronic dry cough
inhibition at 30 mg/kg ([5]; 5 min, naive animals, 30 mg/kg i.p., post-exposure period, versus vehicle, read-out: Percentage inhibition (antitussive effect), 5 min observation): -51.9%
inhibition at 30 mg/kg ([5]; 10 min, naive animals, 30 mg/kg i.p., versus vehicle, read-out: Percentage inhibition (antitussive effect), 10 min exposure): -5.4%
inhibition at 30 mg/kg ([5]; naive animals, 30 mg/kg i.p., whole 15-min observation, versus vehicle, read-out: Percentage inhibition (antitussive effect), 10 + 5 min): -15%
mean cough, 10 min exposure ([5]; naive animals): 9.8
mean cough, 5 min observation ([5]; naive animals, 30 mg/kg i.p.): 3.7
Percentage inhibition (antitussive effect), 5 min observation ([5]; naive animals, 30 mg/kg i.p., post-exposure period, versus vehicle, 30 mg/kg): did not show antitussive effect
Percentage inhibition (antitussive effect), 10 min exposure ([5]; naive animals, 30 mg/kg i.p., versus vehicle, 30 mg/kg): did not show antitussive effect
mean cough, 10 + 5 min [5, 12]: 13.4
antitussive effect (conclusion in words) ([5]; naive animals, 30 mg/kg i.p.): did not show antitussive effect
effect on cough in capsaicin challenge [6]: improving cough
inhibition at 30 mg/kg ([7]; 5 min, bleomycin-treated, 30 mg/kg i.p., post-exposure period, versus vehicle, read-out: Percentage inhibition (antitussive effect), 5 min observation): 77.7%
inhibition at 30 mg/kg ([7]; 10 min, bleomycin-treated, 30 mg/kg i.p., versus vehicle, read-out: Percentage inhibition (antitussive effect), 10 min exposure): 42.8%
inhibition at 30 mg/kg ([7]; bleomycin-treated, 30 mg/kg i.p., whole 15-min observation, versus vehicle, read-out: Percentage inhibition (antitussive effect), 10 + 5 min): 53.2%
mean cough, 10 min exposure [7]: 30.3
antitussive effect (conclusion in words) ([7]; 30 mg/kg i.p.): relevant and statistically significant antitussive effect
mean cough, 5 min observation [7, 13]: 5
mean cough, 10 + 5 min [7, 14]: 35.3
effect on citric acid+enalapril induced cough [8]: reduce citric acid+enalapril induced cough
effect on cough threshold (Atopic cough): decreasing cough threshold
solubility in vehicle [9]: well soluble

COc1ccc2c3c1O[C@H]1[C@@H](O)C=C[C@H]4[C@@H](C2)N(C)CC[C@@]341 [Codeine, codeine]
inhibition at 30 mg/kg [5, 15]: 97.4%
inhibition at 30 mg/kg [5, 16]: 43.9%
inhibition at 30 mg/kg [5, 17]: 55%
mean cough, 10 min exposure ([5]; naive animals): 5.2
mean cough, 5 min observation ([5]; naive animals, 30 mg/kg i.p.): 0.1
mean cough, 10 + 5 min [5, 12]: 5.3
antitussive effect (conclusion in words) ([5]; naive animals, 30 mg/kg i.p.): showed antitussive effect
inhibition at 30 mg/kg [7, 15]: 76.2%
inhibition at 30 mg/kg [7, 16]: 72.9%
inhibition at 30 mg/kg [7, 17]: 73.9%
mean cough, 10 min exposure [7]: 14.3
antitussive effect (conclusion in words) ([7]; 30 mg/kg i.p.): showed antitussive effect
mean cough, 5 min observation [7, 13]: 5.3
mean cough, 10 + 5 min [7, 14]: 19.7

COC(=O)c1ccc2c(c1)NC(=O)/C2=C(\Nc1ccc(N(C)C(=O)CN2CCN(C)CC2)cc1)c1ccccc1 [Ofev (nintedanib), nintedanib]
effect on decline of lung function [10]: slow the decline of lung function
effect on mortality and lung function [10]: has not been shown to reduce mortality or improve lung function

CCCCc1oc2ccccc2c1C(=O)c1cc(I)c(OCCN(CC)CC)c(I)c1 [amiodarone]
patients who get pulmonary fibrosis [11]: up to 40%

O=C1CN(/N=C/c2ccc([N+](=O)[O-])o2)C(=O)N1 [nitrofurantoin]
patients who get pulmonary fibrosis [11]: 0.01%
